What was measured:
[1] = Acceleration effect of hydroxylamine upon release of pyrazolidones from precursors (half-life); assay type: physicochemical; conditions: for Acceleration Effect: pH 10.0, half-life hydroxylamine absent vs present; for t1/2 Hydroxylamine Absent / t1/2 Hydroxylamine Present: release of pyrazolidones; for t1/2 Hydroxylamine Absent: pH 10.0, hydroxylamine absent; for t1/2 Hydroxylamine Present: pH 10.0, hydroxylamine present
Procedure: (§1) The resulting solution was added to a mixture of 16 ml of acetonitrile and 20 ml of Britton-Robinson buffer solution (Britton-Robinson buffer solution can be prepared by mixing phosphoric acid, boric acid, acetic acid and sodium hydroxide, and of which pH can be adjusted within a pH range of 1.81 to 11.98), and allowed to react (wherein the pH of the solution was controlled by the buffer solution). After a definite time, acetic acid was added to lower the pH of the reaction mixture to 6.25 and thereby the reaction stopped. The antifoggant released was determined using high-speed liquid chromatography and therefrom the rate constant of the pseudo first-order reaction and, further, the half-life t1/2 were evaluated.
(§2) The acceleration effect of hydroxylamine was determined by comparison of the half-life value in the hydroxylamine present present case and that in the hydroxylamine-absent case and, further, compared with effects of known precursors of the kind which release antifoggants without ring-cleavage (Comparison Precursor (A-1) and Comparison Precursor (A-2)).
Measurement of Acceleration Effect on Hydroxylamine upon Release of Pyrazolidones from Precursors Thereof
The acceleration effects of hydroxylamine upon release of pyrazolidones were determined in the same way as in Example 1, and the results obtained are shown in Table 2 below.

[2] = Acceleration effect of hydroxylamine upon release of antifoggant from precursor (HPLC, half-life); assay type: physicochemical; parameters: key to Acceleration Effect: ratio of half-life without hydroxylamine to half-life with it; conditions: for t1/2 Hydroxylamine Absent / t1/2 Hydroxylamine Present: release of antifoggant; for change in releasing speed due to addition of hydroxylamine: in words, pH 10.0 and 11.0
Procedure: Measurement of Acceleration Effect of Hydroxylamine upon Release of Antifoggant from Precursor Thereof
as §1, §2

[3] = pH 10.0, half-life hydroxylamine absent vs present
[4] = pH 11.0, half-life hydroxylamine absent vs present
[5] = pH 10.0, hydroxylamine present (3.8×10^-4 mole)
[6] = pH 11.0, hydroxylamine present (3.8×10^-4 mole)

SMILES: CC1(C)CN(c2ccccc2)N(CN2C(=O)c3ccccc3S2(=O)=O)C1=O [(I)-(19)]
- Acceleration Effect [1]: 19
- t1/2 Hydroxylamine Absent [1]: 7,200 sec
- t1/2 Hydroxylamine Present [1]: 370 s

SMILES: O=C1c2ccc([N+](=O)[O-])cc2C(=O)N1CSc1nnnn1-c1ccccc1 [(I)-(10)]
- Acceleration Effect [2, 3]: 8.1
- Acceleration Effect [2, 4]: 3.0
- t1/2 Hydroxylamine Absent ([2]; pH 10.0, hydroxylamine absent): 320 s
- t1/2 Hydroxylamine Present [2, 5]: 38 s
- t1/2 Hydroxylamine Absent ([2]; pH 11.0, hydroxylamine absent): 37 s
- t1/2 Hydroxylamine Present [2, 6]: 12 s

SMILES: CC(CC#N)Sc1nnnn1-c1ccccc1 (centres unmarked) [Comparison Precursor (A-2), reference compound]
- change in releasing speed due to addition of hydroxylamine [2]: reduced the releasing speed rather than accelering it, or hardly showed any appreciable change in the releasing speed
- Acceleration Effect [2, 3]: 1.1
- Acceleration Effect [2, 4]: 1.1
- t1/2 Hydroxylamine Absent ([2]; pH 10.0, hydroxylamine absent): 25,000 sec
- t1/2 Hydroxylamine Present [2, 5]: 23,000 sec
- t1/2 Hydroxylamine Absent ([2]; pH 11.0, hydroxylamine absent): 2,900 sec
- t1/2 Hydroxylamine Present [2, 6]: 2,700 sec

SMILES: O=C1OC(Sc2nnnn2-c2ccccc2)c2ccccc21 (centres unmarked) [(III)-(1)]
- Acceleration Effect [2, 3]: 29
- Acceleration Effect [2, 4]: 30
- t1/2 Hydroxylamine Absent ([2]; pH 10.0, hydroxylamine absent): 27,000 sec
- t1/2 Hydroxylamine Present [2, 5]: 960 s
- t1/2 Hydroxylamine Absent ([2]; pH 11.0, hydroxylamine absent): 3,300 sec
- t1/2 Hydroxylamine Present [2, 6]: 110 s

SMILES: O=C1OC(N2C(=O)CCN2c2ccccc2)c2ccc([N+](=O)[O-])cc21 (centres unmarked) [(III)-(7)]
- Acceleration Effect [1]: 29
- t1/2 Hydroxylamine Absent [1]: 13,000 sec
- t1/2 Hydroxylamine Present [1]: 450 s

SMILES: O=C1c2ccccc2C(=O)N1CN1C(=O)CCN1c1ccccc1 [Compound (I)-(13), 1-phenyl-2-(N-phthalimidomethyl)-3-pyrazolidinone]
- Acceleration Effect [1]: 3.6
- t1/2 Hydroxylamine Absent [1]: 9,400 sec
- t1/2 Hydroxylamine Present [1]: 2,600 sec

SMILES: O=C1c2ccccc2C(=O)N1COC1=NN(c2ccccc2)CC1 [Compound (I)-(14), 1-phenyl-3-(N-phthalimidomethyloxy)-2-pyrazoline]
- Acceleration Effect [1]: 8.2
- t1/2 Hydroxylamine Absent [1]: 3,200 sec
- t1/2 Hydroxylamine Present [1]: 390 s

SMILES: CN(C(=O)Sc1nnnn1-c1ccccc1)c1cccc2c1COC2=O [(V)-(1)]
- Acceleration Effect [2, 3]: 25
- Acceleration Effect [2, 4]: 27
- t1/2 Hydroxylamine Absent ([2]; pH 10.0, hydroxylamine absent): 53,000 sec
- t1/2 Hydroxylamine Present [2, 5]: 2,100 sec
- t1/2 Hydroxylamine Absent ([2]; pH 11.0, hydroxylamine absent): 6,200 sec
- t1/2 Hydroxylamine Present [2, 6]: 230 s

SMILES: O=C1c2ccccc2S(=O)(=O)N1CSc1nnnn1-c1ccccc1 [(I)-(15)]
- Acceleration Effect [2, 3]: 37
- Acceleration Effect [2, 4]: 16
- t1/2 Hydroxylamine Absent ([2]; pH 10.0, hydroxylamine absent): 3,700 sec
- t1/2 Hydroxylamine Present [2, 5]: 100 s
- t1/2 Hydroxylamine Absent ([2]; pH 11.0, hydroxylamine absent): 470 s
- t1/2 Hydroxylamine Present [2, 6]: 29 s

SMILES: CNC(=O)Nc1cccc(-n2nnnc2SCN2C(=O)c3ccccc3S2(=O)=O)c1 [(I)-(16)]
- Acceleration Effect [2, 3]: 35
- Acceleration Effect [2, 4]: 18
- t1/2 Hydroxylamine Absent ([2]; pH 10.0, hydroxylamine absent): 4,100 sec
- t1/2 Hydroxylamine Present [2, 5]: 120 s
- t1/2 Hydroxylamine Absent ([2]; pH 11.0, hydroxylamine absent): 490 s
- t1/2 Hydroxylamine Present [2, 6]: 27 s

SMILES: CN1C(=O)c2cccc(N(C)C(=O)Sc3nnnn3-c3ccccc3)c2C1=O [(IV)-(2)]
- Acceleration Effect [2, 3]: 5.0
- Acceleration Effect [2, 4]: 4.1
- t1/2 Hydroxylamine Absent ([2]; pH 10.0, hydroxylamine absent): 3,500 sec
- t1/2 Hydroxylamine Present [2, 5]: 700 s
- t1/2 Hydroxylamine Absent ([2]; pH 11.0, hydroxylamine absent): 420 s
- t1/2 Hydroxylamine Present [2, 6]: 100 s

SMILES: O=C1CC(Sc2nnnn2-c2ccccc2)C(=O)N1c1ccccc1 (centres unmarked) [Comparison Precursor (A-1), reference compound]
- change in releasing speed due to addition of hydroxylamine [2]: reduced the releasing speed rather than accelering it, or hardly showed any appreciable change in the releasing speed
- Acceleration Effect [2, 3]: 0.61
- Acceleration Effect [2, 4]: 0.82
- t1/2 Hydroxylamine Absent ([2]; pH 10.0, hydroxylamine absent): 2,600 sec
- t1/2 Hydroxylamine Present [2, 5]: 4,200 sec
- t1/2 Hydroxylamine Absent ([2]; pH 11.0, hydroxylamine absent): 310 s
- t1/2 Hydroxylamine Present [2, 6]: 380 s

SMILES: O=C1CCC(=O)N1CSc1nnnn1-c1ccccc1 [(II)-(1)]
- Acceleration Effect [2, 3]: 5.2
- Acceleration Effect [2, 4]: 2.5
- t1/2 Hydroxylamine Absent ([2]; pH 10.0, hydroxylamine absent): 5,700 sec
- t1/2 Hydroxylamine Present [2, 5]: 1,200 sec
- t1/2 Hydroxylamine Absent ([2]; pH 11.0, hydroxylamine absent): 650 s
- t1/2 Hydroxylamine Present [2, 6]: 260 s

SMILES: O=C1CCN(c2ccccc2)N1CN1C(=O)c2ccccc2S1(=O)=O [Compound (I)-(18), N-(1-phenyl-3-pyrazolidinone-2-ylmethyl)saccharin]
- Acceleration Effect [1]: 21
- t1/2 Hydroxylamine Absent [1]: 9,300 sec
- t1/2 Hydroxylamine Present [1]: 440 s

SMILES: CN1C(=O)c2cccc(N(C)C(=O)OC3=NN(c4ccccc4)CC3(C)CO)c2C1=O (centres unmarked) [(IV)-(5)]
- Acceleration Effect [1]: 6.3
- t1/2 Hydroxylamine Absent [1]: 5,600 sec
- t1/2 Hydroxylamine Present [1]: 880 s

SMILES: O=C1OC(Sc2nnnn2-c2ccccc2)(c2ccccc2)c2ccc([N+](=O)[O-])cc21 (centres unmarked) [(III)-(14)]
- Acceleration Effect [2, 3]: 27
- Acceleration Effect [2, 4]: 25
- t1/2 Hydroxylamine Absent ([2]; pH 10.0, hydroxylamine absent): 9,000 sec
- t1/2 Hydroxylamine Present [2, 5]: 340 s
- t1/2 Hydroxylamine Absent ([2]; pH 11.0, hydroxylamine absent): 980 s
- t1/2 Hydroxylamine Present [2, 6]: 39 s

— patent publication US4629683A, “Processing silver halide photographic material with blocked agent and hydroxylamine” (Fuji Photo Film Co., Ltd., priority 1983, dated 1986)
